Values joined by “and” are separate entries in the source; they are usually repeats but may differ in a detail not shown here. Equal values may be shown once.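 Assay format: 96-well plates, 48-hour exposure. Here, GI50 denotes the concentration required for 50% inhibition of growth. Definition used: TGI = concentration required for complete inhibition of growth.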
Columns and labels:
Experiment in all cases: NCI tumour cell line growth inhibition, 48 h
EKVX NSCLC = system: EKVX NSCLC
HS 578T breast = system: HS 578T breast
K-562 leukemia = system: K-562 leukemia
KM12 colon = system: KM12 colon
MALME-3M melanoma = system: MALME-3M melanoma
NCI-H226 lung = system: NCI-H226 lung
SK-MEL-28 melanoma = system: SK-MEL-28 melanoma
U251 CNS = system: U251 CNS
UACC-62 melanoma = system: UACC-62 melanoma
RXF 393 renal = system: RXF 393 renal

| SMILES | TGI (EKVX NSCLC) | TGI (HS 578T breast) | TGI (K-562 leukemia) | TGI (KM12 colon) | TGI (MALME-3M melanoma) | TGI (NCI-H226 lung) | TGI (SK-MEL-28 melanoma) | TGI (U251 CNS) | TGI (UACC-62 melanoma) | TGI (RXF 393 renal) | GI50 (EKVX NSCLC) | GI50 (HS 578T breast) | GI50 (RXF 393 renal) | GI50 (UACC-62 melanoma) | GI50 (K-562 leukemia) | GI50 (KM12 colon) | GI50 (MALME-3M melanoma) | GI50 (NCI-H226 lung) | GI50 (SK-MEL-28 melanoma) | GI50 (U251 CNS) |
| --- | --- | --- | --- | --- | --- | --- | --- | --- | --- | --- | --- | --- | --- | --- | --- | --- | --- | --- | --- | --- |
| CCCCCCNC(=O)c1cnc(Cl)cn1 | 20.7 µM | 44.4 µM | 40.2 µM | 29.3 µM | 31.1 µM | 21.7 µM | 74.9 µM | 23.6 µM | 33.4 µM |  |  |  |  |  |  |  |  |  |  |  |
| NC(N)=N/N=C/c1c(-c2ccccc2)nc2n1ccc1nc(-c3ccccc3)c(/C=N/N=C(N)N)n12 | 65.7 µM | > 100 µM | > 100 µM | > 100 µM | 84 µM | > 100 µM | > 100 µM | > 100 µM | > 100 µM | > 100 µM |  |  |  |  |  |  |  |  |  |  |
| CN(C)CCCNc1ccc2ncn3c4ccccc4c(=O)c1c23 |  |  | 24.1 µM | 20.3 µM | 49.2 µM | 25.9 µM | > 100 µM | > 100 µM | 34.7 µM |  |  |  |  |  |  |  |  |  |  |  |
| CC12CCC(C(=O)OC1=O)C(C)(C)O2 (stereo not drawn) | > 100 µM | > 100 µM | > 100 µM | > 100 µM | > 100 µM | > 100 µM | > 100 µM | > 100 µM | > 100 µM | > 100 µM |  |  |  |  |  |  |  |  |  |  |
| O=NC1C(Cl)C2CC1C1C(Br)C(Br)CC21 (stereo not drawn) | > 100 µM | > 100 µM | > 100 µM | > 100 µM | > 100 µM | > 100 µM | > 100 µM | > 100 µM | > 100 µM | > 100 µM |  |  |  |  |  |  |  |  |  |  |
| CC(=O)C(O)N1C(=O)C=CC1=O (stereo not drawn) | 25 µM and 33.5 µM and 12.3 µM |  |  | 25 µM and 31.2 µM and 34.7 µM |  |  |  |  |  |  | 21.2 µM and 18.7 µM | 15.8 mM | 13000 µM | 7170 µM |  |  |  |  |  |  |
| C[C@@H]1CC[C@H]2C(COCCOCC3=C(C(F)(F)F)O[C@@H]4O[C@@]5(C)CC[C@H]6[C@H](C)CC[C@@H]3[C@@]46OO5)=C(C(F)(F)F)O[C@@H]3O[C@@]4(C)CC[C@@H]1[C@]32OO4 | > 100 µM | > 100 µM | > 100 µM | > 6.15 µM | 9.26 µM | > 100 µM | > 55.3 µM | 0.178 µM | > 100 µM | > 100 µM | 0.795 µM |  | > 100 µM | 0.141 µM | < 24.1 nM | 30.5 nM | < 0.01 µM | 102 nM | > 7.2 µM | < 10 nM |
| CN(C)c1ccc(/C=N\NC(=O)CSCC(=O)N/N=C/c2ccc(N(C)C)cc2)cc1 | > 100 µM | 82.1 µM | > 100 µM | > 100 µM | > 100 µM | > 100 µM | > 100 µM | > 100 µM | > 100 µM | 81.5 µM |  |  |  |  |  |  |  |  |  |  |
| COc1ccc([C@@H]2ON(C)[C@H]3CN(C)C(=O)[C@@H]23)cc1 |  | > 100 µM | > 100 µM |  |  | > 100 µM | > 100 µM | > 100 µM |  |  |  |  |  |  |  |  |  |  |  |  |
| Cc1ccccc1N=Nc1ccc(N=Nc2c(O)ccc3ccccc23)c(C)c1 | > 100 µM | > 100 µM | > 100 µM | > 100 µM | > 100 µM | > 100 µM | > 100 µM | > 100 µM | > 100 µM | > 100 µM |  |  |  |  |  |  |  |  |  |  |
| C/C=C/[P+](c1ccccc1)(c1ccccc1)c1ccccc1 | 13.5 µM | 3.17 µM | 28.2 µM | 7.7 µM | 13.6 µM | 41.4 µM | 17.5 µM | 15.1 µM | 19.2 µM | 41.6 µM |  |  |  |  |  |  |  |  |  |  |
| CC1C(O)C2(Oc3cc4c(c5c3[C@@H](CC5O)[C@H]2C)CCC2Cc3nc5c(nc3C[C@@]42C)CC2CCC3C4=C[C@H]6O[C@@]7(O[C@@](C)(CO)C[C@@H]7O)C(C)[C@@]6(O)[C@]4(C)[C@@H](O)CC3[C@]2(C)C5)OC1(C)C (stereo partly drawn) | > 3.67 µM |  | 0.367 µM | > 3.67 µM | 0.66 µM | 1.23 µM |  | 0.114 µM | 0.231 µM | 0.19 µM |  |  |  |  |  |  |  |  |  |  |
| COc1ccc(N2C(=O)C3c4[nH]c5c(C)cccc5c4C4CCC(C(C)(C)C)CC4C3C2=O)cc1 (stereo not drawn) | > 10 µM | > 10 µM | > 10 µM | > 10 µM | > 10 µM | > 10 µM | > 10 µM | > 10 µM | > 10 µM | > 10 µM |  |  |  |  |  |  |  |  |  |  |
| CC1=C2C(=O)c3ccccc3C(=O)[C@H]2[C@H]2CCO[C@H]2O1 | 91.6 µM | > 100 µM | 74.5 µM | 58.1 µM | 35.9 µM | > 100 µM | 63.1 µM | 59.3 µM | 39.7 µM | 31.3 µM |  |  |  |  |  |  |  |  |  |  |
| Cc1ccc(S(=O)(=O)NCCSCCNS(=O)(=O)c2ccc(C)cc2)cc1 |  | > 100 µM | > 100 µM | > 100 µM |  | > 100 µM | > 100 µM | > 100 µM |  | > 100 µM |  |  |  |  |  |  |  |  |  |  |
| O=c1ccc2cc(O)c(O)cc2o1 | > 100 µM | > 100 µM | > 100 µM | > 100 µM | > 100 µM | > 100 µM | > 100 µM | > 100 µM | > 100 µM | > 100 µM |  |  |  |  |  |  |  |  |  |  |
| COc1ccc(-c2c3c(nc4nc(SCCc5ccccc5)nc(N)c24)CCCC3)cc1OC | > 100 µM | > 100 µM | > 100 µM | > 100 µM | > 100 µM |  | > 100 µM | > 100 µM | > 100 µM | > 100 µM |  |  |  |  |  |  |  |  |  |  |
| Cc1c2cc[n+](CCN3CCCCC3)cc2c(C)c2c1[nH]c1ccc(O)cc12 | 24.6 µM and 51.5 µM | > 100 µM | 25.3 µM and 14.8 µM | 27.9 µM and 14.1 µM | 25.9 µM and 19.2 µM | 55.1 µM and 32.7 µM | 33.7 µM and > 45.9 µM | 10.6 µM and 10.4 µM | 36.7 µM and 31.2 µM | 23.6 µM and 16 µM | 7.83 µM |  | 3.09 µM | 11.4 µM | 2330 nM | 3140 nM | 3.17 µM | 1470 nM and 3750 nM | 9.29 µM | 1700 nM |
| CCCCCCCSc1nc2c(C(=O)OCC)ncn2c2ccccc12 | > 100 µM |  | > 100 µM | > 100 µM | > 100 µM | > 100 µM | > 100 µM | > 100 µM | > 100 µM | > 100 µM |  |  |  |  |  |  |  |  |  |  |
| CN(C)CCNc1nc(-c2ccc3ccccc3c2)nc2nc[nH]c12 | 19.8 µM | 22.8 µM | > 100 µM | 19.3 µM | 16.6 µM | 16.6 µM | 28.9 µM | 31 µM | 22.9 µM | 24.2 µM |  |  |  |  |  |  |  |  |  |  |
| CN1CCCCC1CCN1CCCCC1 (stereo not drawn) | > 100 µM | > 100 µM | > 100 µM | > 100 µM | > 100 µM | > 100 µM | > 100 µM | > 100 µM | > 100 µM | > 100 µM |  |  |  |  |  |  |  |  |  |  |

— PubChem BioAssay (NCI)
